In patent US8153385B2, “Target protein and target gene in drug designing and screening method” (Reverse Proteomics Research Institute Co., Ltd., priority 2004, dated 2012):

Biological target: T1, FLJ13397 clone-derived protein (CARP) (Homo sapiens, UniProt Q9H8M7)
T1 construct: A human full-length cDNA clone was expressed as a protein with an N-terminal His tag; His tag (pDEST17 Gateway vector) (N); made in house; host or cells: Escherichia coli BL21star(DE3)pLysS
T1 sequence (Q9H8M7 1-445): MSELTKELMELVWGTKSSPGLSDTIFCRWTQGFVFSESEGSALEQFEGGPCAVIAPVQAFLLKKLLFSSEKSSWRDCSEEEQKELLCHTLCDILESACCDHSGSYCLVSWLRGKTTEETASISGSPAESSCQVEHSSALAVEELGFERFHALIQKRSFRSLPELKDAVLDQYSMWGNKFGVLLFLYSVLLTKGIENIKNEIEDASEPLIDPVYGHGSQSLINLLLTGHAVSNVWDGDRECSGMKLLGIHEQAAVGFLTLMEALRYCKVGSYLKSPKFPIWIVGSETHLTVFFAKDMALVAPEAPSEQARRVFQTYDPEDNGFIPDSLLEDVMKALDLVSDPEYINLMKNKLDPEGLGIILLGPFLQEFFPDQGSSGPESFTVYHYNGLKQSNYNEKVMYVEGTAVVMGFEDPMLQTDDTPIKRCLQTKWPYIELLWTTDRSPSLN
Assay: SEC/MS (size exclusion chromatography / mass analysis) interaction analysis between FLJ13397 clone-derived protein and compounds
Assay type: binding
Experimental: BP-reaction was performed on human full-length cDNA clone and the cloning vector Gateway pDONR201 by the PCR cloning method using the Invitrogen Gateway system to yield an entry clone. LR-reaction was performed on this entry clone with the destination vector pDEST17 (Gateway System) and LR Clonase at 25° C. for 60 minutes to yield an expression plasmid. Escherichia coli competent cell BL21star(DE3)pLysS were transformed with this expression plasmid, a clone incorporating the expression vector was selected, and a frozen stock was prepared. The transformant was inoculated into LB medium and precultured, after which it was transferred into SB medium and cultured to induce the expression by IPTG, and the cells were stored frozen.
A human full-length cDNA clone was expressed as a protein with an N-terminal His tag. This clone was purified using BioRobot 8000 (Qiagen) or ACTA Crystal (Amersham). […] In the purification with ACTA Crystal, affinity purification using a HisTrap HP column was followed by gel filtration purification using the Gel Filtration Column HiLoad 16/60 or a 10/30 Superdex 75 prep grade column. The purified fraction was used for interaction analysis after being subjected to SDS-PAGE to verify the estimated molecular weight and purity.
To analyze the interactions between commonly used drugs and proteins expressed from human full-length cDNA clones while keeping both the proteins and the compounds in non-modified, non-immobilized state, size exclusion chromatography (SEC) and mass analysis were used in combination (FIGS. 1 and 2). The specific procedures are shown below.
The compound-protein mixture prepared in step 1 was subjected to chromatography using an SEC column, the compound and the protein were separated by SEC, and the bound compound or compound that interacted with the protein in the protein fraction was analyzed using a mass analyzer.
Protein concentrations were measured using BCA Protein Assay (PIERCE), in consideration of the purity calculated by SDS-PAGE.
Mass analysis was performed using LCQ DECA XP (Thermoelectron) or Q-TOFmicro (Micromass), equipped with an ESI probe. The LC pump used was Agilent 1100 (Yokogawa Analytical Systems), and the autosampler used was HTC-PAL (CTC Analytics) equipped with a cooling stacker.
In the SEC method using a 384-well spin column, Unifilter 100 (Whatman), packed with 10 μL (dry volume) of Bio-Gel P6 (BIO-RAD) and swollen with milliQ water, was used as the SEC column. […] The SEC spin column was mounted on an acetonitrile-aliquoted 384-well U-bottom plate and centrifuged; the SEC spin column filtrate, which is a protein fraction, was retrieved in 50% acetonitrile. The protein precipitate produced by the acetonitrile was removed via centrifugation and filtration for protein removal; the resulting filtrate was concentrated by centrifugation and re-dissolved in 10 μL of 50% methanol to obtain a mass analysis sample. The mobile phase supplied to the mass analyzer was 0.1% formic acid/50% methanol solution in the positive ion mode, and 0.1% ammonia/50% methanol solution in the negative ion mode; these mobile phases were used at a flow rate of 40 μL/min. 2-μL of mass analysis samples were injected using an autosampler at 2-Minute intervals; the mass spectral intensity of the compound was measured to obtain the spectral intensity of the pharmaceutical compound contained in the SEC spin column filtrate (protein fraction eluted from SEC).

[1] = compound 1 μM, protein 0 μM (protein-free reference)
[2] = compound 1 μM, protein 23.75 μM
[3] = compound 10 μM, protein 0 μM (protein-free reference)
[4] = compound 10 μM, protein 23.75 μM
[5] = compound 10 μM, protein 47.5 μM
[6] = compound 100 μM, protein 0 μM (protein-free reference)
[7] = compound 100 μM, protein 23.75 μM
[8] = compound 100 μM, protein 47.5 μM
[9] = compound 250 μM, protein 0 μM (protein-free reference)
[10] = compound 250 μM, protein 23.75 μM
[11] = compound 250 μM, protein 47.5 μM

SMILES	spectrum intensity of the extracted mass range (compound in SEC spin column filtrate) [1]	spectrum intensity of the extracted mass range (compound in SEC spin column filtrate) [2]	spectrum intensity of the extracted mass range (compound in SEC spin column filtrate) (compound 1 μM, protein 47.5 μM)	spectrum intensity of the extracted mass range (compound in SEC spin column filtrate) [3]	spectrum intensity of the extracted mass range (compound in SEC spin column filtrate) [4]	spectrum intensity of the extracted mass range (compound in SEC spin column filtrate) [5]	spectrum intensity of the extracted mass range (compound in SEC spin column filtrate) [6]	spectrum intensity of the extracted mass range (compound in SEC spin column filtrate) [7]	spectrum intensity of the extracted mass range (compound in SEC spin column filtrate) [8]	spectrum intensity of the extracted mass range (compound in SEC spin column filtrate) [9]	spectrum intensity of the extracted mass range (compound in SEC spin column filtrate) [10]	spectrum intensity of the extracted mass range (compound in SEC spin column filtrate) [11]
Nc1nc2ccccc2n1Cc1ccccc1 [2-Amino-1-Benzylbenzimidazole, 2-Amino-1-benzylbenzimidazole]	5598524	1659600	2958392	4341825	4509110	7550402	12703620	32945929	42993061	39100216	125775631	559844
CCCS(=O)(=O)c1ccc2[nH]c(N)nc2c1 [2-Amino-5-N-Propylsulphonylbenzimidazole, 2-Amino-5-N-propylsulphonylbenzimidazole]	825049	360734	484482	1750199	1437041	1664928	36160236	53411123	52719227	91113992	98334673	159174682
Nc1nc2ccccc2[nH]1 [2-Aminobenzimidazole]	276565	42562	152781	153479	69826	71963	437739	1819414	2080493	2837732	7370524	8155388
CCCS(=O)(=O)c1ccc2nc(NC(=O)OC)[nH]c2c1 [Albendazole Sulfone]	1342766	1155288	761260	5960539	5481616	5089101	94575228	149841728	131428354	66281031	280956724	328407687
